Reference: patent US8952024B2, “Herbicidal pyrimidone derivatives” (E I du Pont de Nemours and Company, priority 2009, dated 2015)

Assays:
Assay in all cases: Test B pre-/postemergence plant response
Format in all cases: in vivo
[1] = system: pigweed (Amaranthus retroflexus)
Procedure, shortened: (§1)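 Compound in solvent + surfactant applied pre-em (loam/sand) or post-em (plants 2–18 cm, peat medium); greenhouse hold 13–15 days; visual 0–100 control score.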

[2] = system: lambsquarters (Chenopodium album)
Procedure, shortened: as §1

[3] = system: downy bromegrass (Bromus tectorum)
Procedure, shortened: as §1

[4] = system: yellow nutsedge (Cyperus esculentus)
Procedure, shortened: as §1

soybean (Glycine max) = system: soybean (Glycine max)
Procedure, shortened: as §1

[5] = system: Italian ryegrass (Lolium multiflorum)
Procedure, shortened: as §1

kochia (Kochia scoparia) = system: kochia (Kochia scoparia)
Procedure, shortened: as §1

[6] = system: bermudagrass (Cynodon dactylon)
Procedure, shortened: as §1

[7] = system: Surinam grass (Brachiaria decumbens)
Procedure, shortened: as §1

corn (Zea mays) = system: corn (Zea mays)
Procedure, shortened: as §1

[8] = system: cocklebur (Xanthium strumarium)
Procedure, shortened: as §1

[9] = system: velvetleaf (Abutilon theophrasti)
Procedure, shortened: as §1

wild oat (Avena fatua) = system: wild oat (Avena fatua)
Procedure, shortened: as §1

[10] = system: green foxtail (Setaria viridis)
Procedure, shortened: as §1

[11] = system: blackgrass (Alopecurus myosuroides)
Procedure, shortened: as §1

[12] = system: ragweed (common ragweed, Ambrosia elatior)
Procedure, shortened: as §1

[13] = system: large crabgrass (Digitaria sanguinalis)
Procedure, shortened: as §1

[14] = 16 g ai/ha, Postemergence, 0 to 100 scale
[15] = 31 g ai/ha, postemergence, scale 0 to 100, 0 is no effect, 100 is complete control
[16] = 62 g ai/ha, postemergence, 0 is no effect, 100 is complete control, 13 to 15 days
[17] = Postemergence, 125 g ai/ha, visual rating after 13 to 15 days, scale 0 (no effect) to 100 (complete control)
[18] = Preemergence, 16 g ai/ha, scale 0 to 100, 0 no effect, 100 complete control
[19] = Preemergence, 31 g ai/ha, scale 0 to 100 (0 no effect, 100 complete control)
[20] = Preemergence, 62 g ai/ha, scale 0 to 100, 0 no effect, 100 complete control
[21] = Preemergence, 125 g ai/ha, scale 0 to 100, 0 no effect, 100 complete control

O=C1CCCC(O)=C1C(=O)c1cnc(-c2cccc(Br)c2)n(-c2ccccc2)c1=O [Compound 69]
85: Plant response rating, Bermudagrass [6, 14] | Plant response rating, Surinam Grass [7, 15] | Plant response rating, Velvetleaf [9, 21] | Plant response rating, Oat, Wild (wild oat (Avena fatua); [17]) | Plant response rating, Foxtail, Green [10, 21]
80: Plant response rating, Soybean (soybean (Glycine max); [15]) | Plant response rating, Kochia (kochia (Kochia scoparia); [17]) | Plant response rating, Surinam Grass [7, 19] | Oat, Wild plant response rating (0 to 100 scale) (wild oat (Avena fatua); [16])
95: Plant response rating, Pigweed [1, 14] | Plant response rating, Pigweed [1, 18] | Plant response rating, Lambsquarters [2, 18] | Plant response rating, Velvetleaf [9, 15] | Plant response rating, Foxtail, Green [10, 15] | Plant response rating, Crabgrass, Large [13, 14] | Plant response rating, Crabgrass, Large [13, 15] | Crabgrass, Large plant response rating (0 to 100 scale) [13, 16]
0: Plant response rating, Bromegrass, Downy [3, 18] | Plant response rating, Bromegrass, Downy [3, 19] | Plant response rating, Bromegrass, Downy [3, 20] | Plant response rating, Bromegrass, Downy [3, 21] | Plant response rating, Nutsedge, Yellow [4, 18] | Plant response rating, Nutsedge, Yellow [4, 19] | Plant response rating, Nutsedge, Yellow [4, 20] | Plant response rating, Nutsedge, Yellow [4, 21] | Plant response rating, Ryegrass, Italian [5, 14] | Plant response rating, Ryegrass, Italian [5, 19] | Plant response rating, Ryegrass, Italian [5, 20] | Plant response rating, Ryegrass, Italian [5, 21] | Plant response rating, Kochia (kochia (Kochia scoparia); [19]) | Plant response rating, Corn (corn (Zea mays); [14]) | Plant response rating, Corn (corn (Zea mays); [18]) | Plant response rating, Corn (corn (Zea mays); [19]) | Plant response rating, Corn (corn (Zea mays); [20]) | Plant response rating, Corn (corn (Zea mays); [21]) | Plant response rating, Cocklebur [8, 14] | Plant response rating, Cocklebur [8, 15] | Cocklebur plant response rating (0 to 100 scale) [8, 16] | Plant response rating, Cocklebur [8, 18] | Plant response rating, Cocklebur [8, 19] | Plant response rating, Cocklebur [8, 20] | Plant response rating, Oat, Wild (wild oat (Avena fatua); [18]) | Plant response rating, Oat, Wild (wild oat (Avena fatua); [19]) | Plant response rating, Oat, Wild (wild oat (Avena fatua); [20]) | Plant response rating, Oat, Wild (wild oat (Avena fatua); [21]) | Plant response rating, Blackgrass [11, 14] | Plant response rating, Blackgrass [11, 15] | Blackgrass plant response rating (0 to 100 scale) [11, 16] | Plant response rating, Blackgrass [11, 17] | Plant response rating, Blackgrass [11, 18] | Plant response rating, Blackgrass [11, 19] | Plant response rating, Blackgrass [11, 20] | Plant response rating, Blackgrass [11, 21]
100: Pigweed plant response rating (0 to 100 scale) [1, 16] | Plant response rating, Pigweed [1, 17] | Plant response rating, Pigweed [1, 20] | Plant response rating, Pigweed [1, 21] | Plant response rating, Lambsquarters [2, 14] | Plant response rating, Lambsquarters [2, 15] | Lambsquarters plant response rating (0 to 100 scale) [2, 16] | Plant response rating, Lambsquarters [2, 17] | Plant response rating, Lambsquarters [2, 20] | Plant response rating, Lambsquarters [2, 21] | Plant response rating, Bermudagrass [6, 20] | Plant response rating, Bermudagrass [6, 21] | Plant response rating, Surinam Grass [7, 17] | Plant response rating, Surinam Grass [7, 20] | Plant response rating, Surinam Grass [7, 21] | Plant response rating, Foxtail, Green [10, 17] | Plant response rating, Ragweed [12, 17] | Plant response rating, Crabgrass, Large [13, 20] | Plant response rating, Crabgrass, Large [13, 21]
60: Plant response rating, Kochia (kochia (Kochia scoparia); [14]) | Plant response rating, Kochia (kochia (Kochia scoparia); [15]) | Plant response rating, Oat, Wild (wild oat (Avena fatua); [15])
5: Plant response rating, Nutsedge, Yellow [4, 14] | Plant response rating, Nutsedge, Yellow [4, 15] | Plant response rating, Corn (corn (Zea mays); [15])
70: Plant response rating, Bromegrass, Downy [3, 17] | Kochia plant response rating (0 to 100 scale) (kochia (Kochia scoparia); [16]) | Plant response rating, Velvetleaf [9, 19] | Plant response rating, Velvetleaf [9, 20] | Plant response rating, Foxtail, Green [10, 20]
25: Plant response rating, Corn (corn (Zea mays); [17])
45: Plant response rating, Soybean (soybean (Glycine max); [14]) | Plant response rating, Kochia (kochia (Kochia scoparia); [21])
50: Ryegrass, Italian plant response rating (0 to 100 scale) [5, 16] | Plant response rating, Ryegrass, Italian [5, 17] | Plant response rating, Oat, Wild (wild oat (Avena fatua); [14])
20: Plant response rating, Kochia (kochia (Kochia scoparia); [20]) | Plant response rating, Cocklebur [8, 17]
30: Plant response rating, Bromegrass, Downy [3, 14] | Plant response rating, Ryegrass, Italian [5, 15]
55: Bromegrass, Downy plant response rating (0 to 100 scale) [3, 16]
98: Plant response rating, Pigweed [1, 15] | Plant response rating, Pigweed [1, 19] | Plant response rating, Lambsquarters [2, 19] | Plant response rating, Soybean (soybean (Glycine max); [17]) | Plant response rating, Bermudagrass [6, 15] | Bermudagrass plant response rating (0 to 100 scale) [6, 16] | Plant response rating, Bermudagrass [6, 17] | Plant response rating, Bermudagrass [6, 19] | Velvetleaf plant response rating (0 to 100 scale) [9, 16] | Plant response rating, Velvetleaf [9, 17] | Foxtail, Green plant response rating (0 to 100 scale) [10, 16] | Plant response rating, Crabgrass, Large [13, 17] | Plant response rating, Crabgrass, Large [13, 19]
90: Soybean plant response rating (0 to 100 scale) (soybean (Glycine max); [16]) | Plant response rating, Bermudagrass [6, 18] | Surinam Grass plant response rating (0 to 100 scale) [7, 16] | Plant response rating, Ragweed [12, 15] | Ragweed plant response rating (0 to 100 scale) [12, 16]
10: Nutsedge, Yellow plant response rating (0 to 100 scale) [4, 16] | Corn plant response rating (0 to 100 scale) (corn (Zea mays); [16]) | Plant response rating, Cocklebur [8, 21]
65: Plant response rating, Ragweed [12, 19] | Plant response rating, Ragweed [12, 20] | Plant response rating, Ragweed [12, 21]
75: Plant response rating, Surinam Grass [7, 14] | Plant response rating, Velvetleaf [9, 14] | Plant response rating, Foxtail, Green [10, 14] | Plant response rating, Ragweed [12, 14] | Plant response rating, Crabgrass, Large [13, 18]
40: Plant response rating, Bromegrass, Downy [3, 15] | Plant response rating, Nutsedge, Yellow [4, 17]
